For the test, the target named is HIV-1 protease (Human immunodeficiency virus type 1 group M subtype B, UniProt P04585). Nature of the test: Biological assay for inhibition of microbial expressed viral protease (HIV-1 protease). In kind it is biochemical. The text has this:
Insofar as compounds of the invention are able to inhibit the replication of the HIV virus in human T-cells and furthermore, may be delivered orally to mammals, they are of evident clinical utility for the treatment of HIV infection. These tests are predictive of the compounds ability to inhibit HIV protease in vivo. We have measured the inhibition constants of each compound against HIV-1 protease using essentially the method described by M. W. Pennington et al., Peptides 1990, Gimet, E. and D. Andrew, Eds., Escom; Leiden, Netherlands (1990).
Biological Assay for Inhibition of Microbial Expressed Viral Protease
The inhibition constants against HIV-1 protease were measured using the method described by M. V. Toth and G. R. Marshall, Int. J. Peptide protein Res., 1990, 544. The method described M. W. Pennington et al., Peptides 1990, Gimet, E. and D. Andrew, Eds., Escom; Leiden, Netherlands (1990) may also be used. Inhibition is measured as IC50 in μM. The person of skill would accept these tests as predictive of the compounds' utility in vivo to treat HIV infected patients.

One may read the IC50 as the concentration that gives 50% inhibition. In turn, `CC(C)(C)OC(=O)NC(Cc1ccccc1)C(O)C1SCCN1S(=O)(=O)c1cccc2cccnc12` (stereo not shown) [EP-001153] displayed an IC50 of 5 to 20 µM. `CC(C)(C)OC(=O)NC(Cc1ccccc1)C(O)C1SCCN1S(=O)(=O)c1ccc(OC(F)(F)F)cc1` (stereo not shown) [EP-001155] registered an IC50 of 5 to 20 µM.

Molecule `CC(C)(C)OC(=O)NC(Cc1ccccc1)C(O)C1SCCN1S(=O)(=O)c1ccccc1` (stereo not shown) [EP-001156] yielded an IC50 below 5 µM. Take `CC(C)(C)OC(=O)NC(Cc1ccccc1)C(O)C1SCCN1S(=O)(=O)c1ccc([N+](=O)[O-])cc1` (stereo not shown) [EP-001157]: the IC50 is below 5 µM. Molecule `CC(C)c1ccc(S(=O)(=O)N2CCSC2C(O)C(Cc2ccccc2)NC(=O)OC(C)(C)C)cc1` (stereo not shown) [EP-001159] returned a 50% inhibitory concentration (IC50) of 5 to 20 µM. Under `Cc1c(O)cccc1C(=O)NC(Cc1ccccc1)C(O)C1SCCN1S(=O)(=O)c1ccc(F)cc1` (stereo not shown) [EP-001161] stands below 5 µM; under `Cc1cccc(C)c1OCC(=O)NC(Cc1ccccc1)C(O)C1SCCN1S(=O)(=O)c1ccc(F)cc1` (stereo not shown) [EP-001162], below 5 µM; under `O=C(COc1ccccc1)NC(Cc1ccccc1)C(O)C1SCCN1S(=O)(=O)c1ccc(F)cc1` (stereo not shown) [EP-001163], above 20 µM. Regarding `CC(Oc1ccccc1)C(=O)NC(Cc1ccccc1)C(O)C1SCCN1S(=O)(=O)c1ccc(F)cc1` (stereo not shown) [EP-001164], the IC50 is above 20 µM. In turn, `O=C(COc1cccc2ccccc12)NC(Cc1ccccc1)C(O)C1SCCN1S(=O)(=O)c1ccc(F)cc1` (stereo not shown) [EP-001165] gave an IC50 above 20 µM.

Molecule `O=C(COc1ccc2ccccc2c1)NC(Cc1ccccc1)C(O)C1SCCN1S(=O)(=O)c1ccc(F)cc1` (stereo not shown) [EP-001166] gave a half-maximal inhibitory concentration (IC50) above 20 µM. Under `O=C(NC(Cc1ccccc1)C(O)C1SCCN1S(=O)(=O)c1ccc(F)cc1)OC1CCOC1` (stereo not shown) [EP-001169] stands below 5 µM.

As to `O=C(Cc1ccccc1)NC(Cc1ccccc1)C(O)C1SCCN1S(=O)(=O)c1ccc(F)cc1` (stereo not shown) [EP-001171], the IC50 is above 20 µM.

Turning to `CC(C)(C)OC(=O)NC(Cc1ccccc1)C(O)C1SCCN1S(=O)(=O)c1ccc(N)cc1` (stereo not shown) [EP-001172], the IC50 was below 5 µM. For `COCCOC(=O)NC(Cc1ccccc1)C(O)C1SCCN1S(=O)(=O)c1ccc(F)cc1` (stereo not shown) [EP-001184], the IC50 is below 5 µM. With `Cc1c(O)cccc1C(=O)NC(Cc1ccccc1)C(O)C1SCCN1S(=O)(=O)c1ccc(N)cc1` (stereo not shown) [EP-001195], the IC50 was below 5 µM.
